In the supplement of paper PMC10307832:

Legend:
Assay in all cases: relative viability (nuclei count vs DMSO), 5 days (fraction); higher = more cells survive
Doxorubicin + OSI-027 = compound: COc1cccc2c1C(=O)c1c(O)c3c(c(O)c1C2=O)C[C@@](O)(C(=O)CO)C[C@@H]3O[C@H]1C[C@H](N)[C@H](O)[C@H](C)O1 [Doxorubicin] + COc1cccc2cc(-c3nc([C@H]4CC[C@H](C(=O)O)CC4)n4ncnc(N)c34)[nH]c12 [OSI-027] (partner 0.5 µM)
Outline: (§1)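 Relative viability divides the nuclei count in treated wells by that in vehicle wells. Lung cancer cell lines were seeded in 1536-well plates, dosed by pin tool the next day, and fixed and stained after 5 days in one step with final 0.05% Triton X-100, 1% formaldehyde and 1 ug/ml Hoechst. Dosing was a single drug or a fixed anchor-drug dose plus five library-drug doses (not always all listed) in √10 steps, and values are medians of duplicate plates imaged at 4×.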

Doxorubicin + Lapatinib = compound: COc1cccc2c1C(=O)c1c(O)c3c(c(O)c1C2=O)C[C@@](O)(C(=O)CO)C[C@@H]3O[C@H]1C[C@H](N)[C@H](O)[C@H](C)O1 [Doxorubicin] + CS(=O)(=O)CCNCc1ccc(-c2ccc3ncnc(Nc4ccc(OCc5cccc(F)c5)c(Cl)c4)c3c2)o1 [Lapatinib] (partner 2 µM)
Outline: as §1

Doxorubicin + Pemetrexed = compound: COc1cccc2c1C(=O)c1c(O)c3c(c(O)c1C2=O)C[C@@](O)(C(=O)CO)C[C@@H]3O[C@H]1C[C@H](N)[C@H](O)[C@H](C)O1 [Doxorubicin] + Nc1nc2[nH]cc(CCc3ccc(C(=O)N[C@@H](CCC(=O)O)C(=O)O)cc3)c2c(=O)[nH]1 [Pemetrexed] (partner 0.2 µM)
Outline: as §1

BAY61-3606 + Foretinib = compound: COC1=C(C=C(C=C1)C2=CC3=NC=CN3C(=N2)NC4=C(C=CC=N4)C(=O)N)OC [BAY61-3606] + COc1cc2c(Oc3ccc(NC(=O)C4(C(=O)Nc5ccc(F)cc5)CC4)cc3F)ccnc2cc1OCCCN1CCOCC1 [Foretinib] (partner 0.25 µM)
Outline: as §1

Cell Line | relative viability (Doxorubicin + OSI-027; first compound 0.001 µM) | relative viability (Doxorubicin + OSI-027; first compound 0.003162 µM) | relative viability (Doxorubicin + OSI-027; first compound 0.01 µM) | relative viability (Doxorubicin + OSI-027; first compound 0.03162 µM) | relative viability (Doxorubicin + OSI-027; first compound 0.1 µM) | relative viability (Doxorubicin + Lapatinib; first compound 0.001 µM) | relative viability (Doxorubicin + Lapatinib; first compound 0.003162 µM) | relative viability (Doxorubicin + Lapatinib; first compound 0.01 µM) | relative viability (Doxorubicin + Lapatinib; first compound 0.03162 µM) | relative viability (Doxorubicin + Lapatinib; first compound 0.1 µM) | relative viability (Doxorubicin + Pemetrexed; first compound 0.001 µM) | relative viability (Doxorubicin + Pemetrexed; first compound 0.003162 µM) | relative viability (Doxorubicin + Pemetrexed; first compound 0.01 µM) | relative viability (Doxorubicin + Pemetrexed; first compound 0.03162 µM) | relative viability (Doxorubicin + Pemetrexed; first compound 0.1 µM) | relative viability (BAY61-3606 + Foretinib; first compound 0.02 µM) | relative viability (BAY61-3606 + Foretinib; first compound 0.06325 µM) | relative viability (BAY61-3606 + Foretinib; first compound 0.2 µM) | relative viability (BAY61-3606 + Foretinib; first compound 0.6325 µM) | relative viability (BAY61-3606 + Foretinib; first compound 2 µM)
LU99A | 0.353 | 0.338 | 0.302 | 0.273 | 0.315 | 1.01 | 1.16 | 0.954 | 0.583 | 0.788 | 0.199 | 0.186 | 0.191 | 0.173 | 0.165 | 0.915 | 0.656 | 0.858 | 0.63 | 0.526
LXF-289 | 0.613 | 0.832 | 0.794 | 0.834 | 0.819 | 0.865 | 0.886 | 0.864 | 0.891 | 0.823 | 0.95 | 0.917 | 0.839 | 1.03 | 0.929 | 0.966 | 0.971 | 0.978 | 0.988 | 0.944
NCI-H23 | – | 0.664 | 0.694 | 0.537 | 0.506 | – | 1.1 | 0.852 | 0.481 | 0.43 | 0.515 | 0.685 | 0.667 | 0.661 | 0.444 | 1.05 | 0.907 | 1.01 | 1.03 | 0.874
NCI-H322M | 0.414 | 0.493 | 0.566 | 0.556 | 0.378 | 0.636 | 0.563 | 0.547 | 0.521 | 0.569 | 0.682 | 0.542 | 0.66 | 0.548 | 0.512 | 1.12 | 0.91 | 0.981 | 1.03 | 0.831
NCI-H358 | 0.853 | 0.642 | 0.417 | 0.121 | 0.0934 | 0.503 | 0.441 | 0.334 | 0.195 | 0.207 | 0.152 | 0.183 | 0.179 | 0.156 | 0.169 | 0.773 | 0.457 | 0.652 | 0.637 | 0.286
NCI-H460 | 0.614 | 0.41 | 0.482 | 0.0685 | 0.0255 | 0.86 | 0.592 | 0.247 | 0.0187 | 0.0161 | 0.0538 | 0.064 | 0.0574 | 0.0641 | 0.0392 | 1.05 | 1 | 1.05 | 0.973 | 0.945
NCI-H520 | 0.249 | 0.274 | 0.233 | 0.193 | 0.202 | 0.881 | 0.965 | 0.753 | 0.48 | 0.248 | 0.789 | 0.728 | 0.681 | 0.703 | 0.604 | 0.935 | 0.716 | 0.839 | 0.669 | 0.744
NCI-H596 | 0.578 | 0.801 | 0.799 | 0.647 | 0.721 | 1.08 | 1.1 | 1.05 | 0.943 | 1.03 | 0.499 | 0.505 | 0.526 | 0.473 | 0.486 | 0.768 | 0.761 | 0.841 | 0.844 | 0.726
NCI-H647 | 0.695 | 0.805 | 0.771 | 0.498 | 0.215 | 1.02 | 1.24 | 0.643 | 0.119 | 0.0876 | 0.211 | 0.168 | 0.196 | 0.127 | 0.163 | 1.24 | 1.1 | 1.14 | 1.27 | 0.878
NCI-H650 | 0.574 | 0.544 | 0.59 | 0.522 | 0.495 | 0.925 | 0.838 | 0.837 | 0.595 | 0.0014 | 1.05 | 0.846 | 0.926 | 0.867 | 0.784 | 1.1 | 1.02 | 1.02 | 1.09 | 0.8
NCI-H661 | 0.829 | 0.639 | 0.625 | 0.46 | 0.291 | 0.506 | 0.515 | 0.492 | 0.498 | 0.493 | 0.894 | 1.02 | 0.891 | 0.754 | 0.643 | 1.06 | 1.05 | 0.99 | 1.02 | 0.941
NCI-H838 | 0.421 | 0.429 | 0.387 | 0.39 | 0.328 | 1.02 | 1.06 | 0.834 | 0.375 | 0.195 | 0.252 | 0.228 | 0.229 | 0.256 | 0.236 | 0.973 | 0.991 | 0.947 | 1.06 | 0.955
NCI-H1355 | 0.374 | 0.422 | 0.396 | 0.432 | 0.389 | 0.952 | 1.08 | 0.963 | 0.888 | 0.856 | 1 | 1.02 | 1 | 1.01 | 1.04 | 0.981 | 0.911 | 0.922 | 0.992 | 0.761
NCI-H1395 | 0.633 | 0.714 | 0.685 | 0.603 | 0.559 | 0.921 | 0.986 | 0.949 | 0.803 | 0.607 | 0.887 | 1.02 | 1.08 | 0.7 | 0.537 | 1.13 | 0.934 | 0.951 | 0.995 | 0.807
NCI-H1437 | 0.828 | 0.916 | 0.842 | 0.698 | 0.351 | 0.772 | 0.836 | 0.61 | 0.278 | 0.209 | 0.32 | 0.297 | 0.303 | 0.315 | 0.329 | 1.23 | 1.22 | 1.31 | 1.38 | 1.28
NCI-H1563 | 0.813 | 0.788 | 0.684 | 0.589 | 0.5 | 0.721 | 0.779 | 0.661 | 0.545 | 0.549 | 0.734 | 0.825 | 0.838 | 0.777 | 0.536 | 1.03 | 0.99 | 0.893 | 0.931 | 0.847
NCI-H1650 | 0.496 | 0.567 | 0.394 | 0.153 | 0.144 | 0.208 | 0.612 | 0.25 | 0.202 | 0.14 | 0.37 | 0.374 | 0.381 | 0.242 | 0.19 | 1.14 | 1.02 | 1.02 | 1.34 | 0.498
NCI-H1651 | 0.682 | 0.679 | 0.554 | 0.298 | 0.22 | 0.784 | 0.729 | 0.475 | 0.166 | 0.129 | 0.591 | 0.628 | 0.604 | 0.57 | 0.588 | 0.886 | 0.713 | 0.765 | 0.88 | 0.739
NCI-H1666 | 0.778 | 0.736 | 0.547 | 0.45 | 0.486 | 0.699 | 0.507 | 0.296 | 0.25 | 0.236 | – | 0.858 | 0.724 | 0.782 | 0.757 | 1.06 | 1.02 | 0.987 | 0.991 | 0.918
NCI-H1734 | 0.799 | 0.6 | 0.594 | 0.395 | 0.432 | 1.07 | 1.06 | 0.948 | 0.53 | 0.466 | 0.468 | 0.404 | 0.398 | 0.448 | 0.421 | 0.825 | 0.79 | 0.743 | 0.836 | 0.411
NCI-H1755 | 0.631 | 0.711 | 0.747 | 0.721 | 0.704 | 0.962 | 1.05 | 0.991 | 1.07 | 0.998 | 0.419 | 0.408 | 0.419 | 0.492 | 0.467 | 0.932 | 0.867 | 0.974 | 0.913 | 0.882
NCI-H1793 | – | 0.334 | 0.253 | 0.265 | 0.292 | – | 0.93 | 0.643 | 0.537 | 0.659 | – | 1.11 | 0.904 | 0.617 | 0.784 | 0.79 | 0.674 | – | 0.692 | 0.476
NCI-H1915 | 0.532 | 0.674 | 0.667 | 0.628 | 0.659 | 0.975 | 0.929 | 0.99 | 0.975 | 0.99 | 0.533 | 0.529 | 0.525 | 0.568 | 0.502 | 1.06 | 1.09 | 1.07 | 1.13 | 0.613
NCI-H1944 | 0.317 | 0.46 | 0.473 | 0.358 | 0.366 | 0.872 | 0.827 | 0.857 | 0.693 | 0.841 | 0.606 | 0.602 | 0.643 | 0.504 | 0.495 | 0.912 | 0.815 | 0.858 | 0.886 | 0.396
NCI-H1975 | 0.637 | 0.715 | 0.685 | 0.497 | 0.256 | 0.887 | 0.902 | 0.719 | 0.253 | 0.202 | 0.268 | 0.29 | 0.277 | 0.306 | 0.225 | 1.06 | 0.931 | 0.874 | 0.974 | 0.65
NCI-H1993 | 0.591 | 0.58 | 0.542 | 0.515 | 0.498 | 0.823 | 0.778 | 0.748 | 0.633 | 0.501 | 0.603 | 0.685 | 0.58 | 0.57 | 0.528 | 0.818 | 0.772 | 0.712 | 0.794 | 0.66
NCI-H2009 | 0.634 | 0.687 | 0.568 | 0.632 | 0.402 | 0.912 | 0.245 | 0.763 | 0.376 | 0.283 | 1.04 | 0.987 | 1.01 | 0.788 | 0.617 | 1.34 | 1.31 | 1.22 | 1.26 | 1.06
